# Measurements taken from patent EP1935887A1, “Heterocyclic substituted carbonyl derivatives and their use as dopamine D3 receptor ligands” (Aventis Pharmaceuticals Inc., priority 2001, dated 2002).
# Target: T1, Cloned Human Dopamine D3 Receptors (Homo sapiens, UniProt P35462)
# T1 construct: expressed in transfected cells; membrane homogenate
# Test: [N-Methyl-3H]Spiroperidol binding to cloned human dopamine D3 receptors
# Details: D3 Ki (nM)
# Procedure, shortened: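 Membranes from CHO cells stably expressing human D3 receptor, homogenised in 10% DMSO and stored at -80°C. Binding uses [N-methyl-3H]spiroperidol in Tris buffer, pH 7.7.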
# T1 sequence (P35462 whole entry): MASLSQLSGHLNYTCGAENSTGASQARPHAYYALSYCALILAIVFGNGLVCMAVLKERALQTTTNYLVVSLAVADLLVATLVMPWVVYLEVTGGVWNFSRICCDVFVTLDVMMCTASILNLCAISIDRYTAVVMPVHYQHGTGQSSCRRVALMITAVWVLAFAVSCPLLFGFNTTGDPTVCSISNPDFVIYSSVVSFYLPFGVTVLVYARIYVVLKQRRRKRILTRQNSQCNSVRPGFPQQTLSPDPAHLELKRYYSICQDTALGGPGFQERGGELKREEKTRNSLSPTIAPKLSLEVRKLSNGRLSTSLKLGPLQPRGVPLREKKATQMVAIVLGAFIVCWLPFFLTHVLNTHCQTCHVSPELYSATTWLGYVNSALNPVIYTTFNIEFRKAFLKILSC
row,SMILES,Ki [nM]
1,CCC1CCC(NC(=O)C2CC2CN2CCC(c3nn(-c4ccc(C(F)(F)F)cc4)c4ccccc34)CC2)CC1 (centres unmarked) [compound 830133],176
2,C[C@H]1CC[C@H](NC(=O)[C@@H]2C[C@H]2CN2CCN(c3noc4ccsc34)CC2)CC1 [compound 831083],3.2
3,O=C(NCCCn1ccnc1)[C@@H]1C[C@H]1CN1CCC(c2nn(-c3ccc(C(F)(F)F)cc3)c3ccccc23)CC1 [compound 831311],38.7
4,Cn1nc(N2CCN(CC3CC3C(=O)NCCCn3ccnc3)CC2)c2sccc21 (centres unmarked) [compound 831673],23.5
5,O=C(NC1CCN(CC2CCCCC2)CC1)C1CC1CN1CCC(c2noc3ccsc23)CC1 (centres unmarked) [compound 831823],2.37
6,COc1ccccc1CN1CCC(NC(=O)C2CC2CN2CCC(c3noc4ccsc34)CC2)CC1 (centres unmarked) [compound 831991],0.722
7,CN1CCCC1CCNC(=O)C1CC1CN1CCN(c2csc3cc(C(F)(F)F)ccc23)CC1 (centres unmarked) [compound 832217],44.1
8,O=C(NC1CCN(Cc2ccc(F)c(F)c2)CC1)C1CC1CN1CCC(c2noc3ccsc23)CC1 (centres unmarked) [compound 832342],0.077
9,O=C(NC1CCN(Cc2cc(F)ccc2F)CC1)C1CC1CN1CCC(c2noc3ccsc23)CC1 (centres unmarked) [compound 832345],1.46
10,O=C(NC1CCN(Cc2ccc(C(F)(F)F)cc2)CC1)C1CC1CN1CCC(c2noc3ccsc23)CC1 (centres unmarked) [compound 832349],0.843
11,O=C(C1CC1CN1CCC(c2noc3ccsc23)CC1)N1CCC(Nc2ccc(Cl)cc2)CC1 (centres unmarked) [compound 832395],30.2
12,O=C(NC1CCN(Cc2cccc(F)c2)CC1)[C@@H]1C[C@H]1CN1CCC(c2noc3ccsc23)CC1 [compound 832727],1.19
13,Cn1nc(C2CCN(C[C@@H]3C[C@H]3C(=O)NCCCN3CCCCC3)CC2)c2cccc(C(F)(F)F)c21 [compound 833090],41.8
14,O=C([C@@H]1C[C@H]1CN1CCC(c2noc3ccsc23)CC1)N1CCN(Cc2ccc(Cl)cc2)CC1 [compound 833128],28.7
15,O=C(NC1CCN(C(=O)Nc2ccc(F)cc2)CC1)[C@@H]1C[C@H]1CN1CCC(c2noc3ccsc23)CC1 [compound 833715],5.7
16,Cn1nc(C2CCN(C[C@@H]3C[C@H]3C(=O)N[C@H]3CC[C@H](C)CC3)CC2)c2cc(C(F)(F)F)ccc21 [compound 833769],1.63

# Same assay, conditions: Table 2; unit inferred; read-out: d3Ki
row,SMILES,Ki [nM]
1,CC[C@H]1CC[C@H](NC(=O)[C@@H]2C[C@H]2CN2CCCN(c3ccc(C)cn3)CC2)CC1 [compound 827732],10.5
2,CC[C@H]1CC[C@H](NC(=O)[C@@H]2C[C@H]2CN2CCCN(c3ncccc3Cl)CC2)CC1 [compound 827733],1.19
3,CCC1CCC(NC(=O)C2CC2CN2CCCN(c3ccccn3)CC2)CC1 (centres unmarked) [compound 827800],19.7

# Same assay, conditions: read-out: D3 Ki
row,SMILES,Ki [nM]
1,O=C([C@@H]1C[C@H]1CN1CCC(c2noc3ccsc23)CC1)N1CCOCC1 [compound 829461],306
2,CN(CCc1ccccn1)C(=O)C1CC1CN1CCC(c2noc3ccsc23)CC1 (centres unmarked) [compound 829593],350
3,CCC1CCC(NC(=O)C2CC2CN2CCCN(c3ccc4c(C#N)n[nH]c4n3)CC2)CC1 (centres unmarked) [compound 830122],67.6
4,O=C(NCCCN1CCOCC1)[C@@H]1C[C@H]1CN1CCC(c2noc3ccsc23)CC1 [compound 831046],15.5
5,CN(C)CCCNC(=O)[C@@H]1C[C@H]1CN1CCC(c2noc3ccsc23)CC1 [compound 831048],11.3
6,O=C(NCCCc1ccncc1)[C@@H]1C[C@H]1CN1CCC(c2noc3ccsc23)CC1 [compound 831197],4.17
7,O=C(NCCCn1cccn1)[C@@H]1C[C@H]1CN1CCC(c2noc3ccsc23)CC1 [compound 831273],68.6
8,COc1ccc2[nH]cc(CCNC(=O)[C@@H]3C[C@H]3CN3CCC(c4noc5ccsc45)CC3)c2c1 [compound 831275],5.15
9,COc1ccc2c(CCNC(=O)[C@@H]3C[C@H]3CN3CCC(c4noc5ccsc45)CC3)c[nH]c2c1 [compound 831276],3.85
10,O=C(NCCCc1ccccc1)[C@@H]1C[C@H]1CN1CCC(c2cc3ccccc3s2)CC1 [compound 831489],16.9
11,"O=C(NCCCn1ccnc1)[C@@H]1C[C@H]1CN1CCN(c2noc3ccsc23)CC1 [compound 831493, 2R-(4-Thieno[2,3-d]isoxazol-3-yl-piperazin-1-ylmethyl)-1 R-cyclopropanecarboxylic acid (3-imidazol-1-yl-propyl)-amide]",4.95
12,O=C(NCCCc1ccccc1)[C@@H]1C[C@H]1CN1CCN(c2noc3ccsc23)CC1 [compound 831494],28.3
13,COc1cccc2c(C3CCN(C[C@@H]4C[C@H]4C(=O)N4CCC(Oc5ccc(F)cc5)CC4)CC3)noc12 [compound 831878],189
14,COc1ccc2c(c1)c(N1CCN(C[C@@H]3C[C@H]3C(=O)N[C@H]3CC[C@H](O)CC3)CC1)nn2-c1ccc(C(F)(F)F)cc1 [compound 831949],29
15,O=C(NC1CCC(O)CC1)C1CC1CN1CCN(c2noc3ccsc23)CC1 (centres unmarked) [compound 831955],47.3
16,O=C(C1CC1CN1CCC(c2noc3ccsc23)CC1)N1CCN(CCc2ccccn2)CC1 (centres unmarked) [compound 832001],157
17,Cc1nc(N)sc1CCNC(=O)C1CC1CN1CCC(c2noc3ccsc23)CC1 (centres unmarked) [compound 832045],22
18,O=C(C1CC1CN1CCC(c2noc3ccsc23)CC1)N1CCN(CCC2CCCCC2)CC1 (centres unmarked) [compound 832058],24.2
19,CC1CCC(NC(=O)C2CC2CN2CCC(c3noc4c(C(F)(F)F)cccc34)CC2)CC1 (centres unmarked) [compound 832203],4.76
20,O=C(NCCCN1CCOCC1)[C@@H]1C[C@H]1CN1CCC(c2noc3c(C(F)(F)F)cccc23)CC1 [compound 832273],205

row,SMILES,Ki [nM]
1,O=C(NC1CCNCC1)[C@@H]1C[C@H]1CN1CCN(c2csc3cc(C(F)(F)F)ccc23)CC1 [compound 832502],2.67
2,"Cn1nc(C2CCN(C[C@@H]3C[C@H]3C(=O)NCCCn3ccnc3)CC2)c2cccc(C(F)(F)F)c21 [compound 832654, 2R-[4-(1-Methyl-7-trifluoromethyl-1 H-indazol-3-yl)-piperidin-1-ylmethyl]-1 R-cycloproanecarboxylic acid (3-imidazol-1-yl-propyl)-amide]",4.72
3,O=C(NC1CCN(CC2CC2)CC1)[C@@H]1C[C@H]1CN1CCN(c2csc3cc(C(F)(F)F)ccc23)CC1 [compound 832734],9.85
4,O=C(NC1CCN(Cc2cccc(F)c2)CC1)[C@@H]1C[C@H]1CN1CCN(c2csc3cc(C(F)(F)F)ccc23)CC1 [compound 832736],2.74
5,O=C(NC1CCN(Cc2ccc(F)cc2)CC1)[C@@H]1C[C@H]1CN1CCN(c2csc3cc(C(F)(F)F)ccc23)CC1 [compound 832738],3.26
6,COc1ccc2c(c1)c(N1CCN(C[C@@H]3C[C@H]3C(=O)NCCCN3CCN(C)CC3)CC1)nn2C [compound 833121],26.5
7,O=C(NC1CCN(Cc2ccc(F)c(F)c2)CC1)[C@@H]1C[C@H]1CN1CCC(c2noc3ccsc23)CC1 [compound 833165],1.07
8,Cn1nc(C2CCN(C[C@@H]3C[C@H]3C(=O)N[C@H]3CC[C@H](C)CC3)CC2)c2cccc(C(F)(F)F)c21 [compound 833305],8.81
9,CC(C)(C)OC(=O)N1CCC(CNC(=O)C2CC2CN2CCN(c3csc4cc(C(F)(F)F)ccc34)CC2)C1 (centres unmarked) [compound 833625],22.2
10,COc1ccc2c(c1)c(N1CCN(C[C@@H]3C[C@H]3C(=O)N3CCC(CCN4CCCC4)CC3)CC1)nn2C [compound 833628],95.8
11,COc1ccc2c(c1)c(N1CCN(C[C@@H]3C[C@H]3C(=O)NC[C@H]3CCN(C(=O)OC(C)(C)C)C3)CC1)nn2C [compound 833630],52.1
12,COc1ccc2c(c1)c(N1CCN(C[C@@H]3C[C@H]3C(=O)NCCCN(C)C)CC1)nn2C [compound 833631],31.3
13,"C[C@H]1CC[C@H](NC(=O)[C@@H]2C[C@H]2CN2CCC(c3csc4c(C(F)(F)F)cccc34)CC2)CC1 [compound 833690, 2R-[4-(7-Trifluoromethyl-benzo[b]thiophen-3-yl)-piperidin-1-ylmethyl]-1R-cyclopropanecarboxylic acid (trans-4-methyl-cyclohexyl)-amide]",7.97
14,C[C@H]1CC[C@H](NC(=O)[C@@H]2C[C@H]2CN2CCC(c3nc4cc(Cl)ccc4o3)CC2)CC1 [compound 833692],72.9
15,"O=C(NCCCn1ccnc1)[C@@H]1C[C@H]1CN1CCN(c2csc3ncccc23)CC1 [compound 833821, 2R-(4-Thieno[2,3-b]pyridin-3-yl-piperazin-1-ylmethyl)-1R-cyclopropanecarboxylic acid (3-imidazol-1-yl-propyl)-amide]",6.91
16,Cn1nc(N2CCN(C[C@@H]3C[C@H]3C(=O)NCCCn3ccnc3)CC2)c2ccccc21 [compound 833822],0.64
17,O=C(NCCCn1ccnc1)[C@@H]1C[C@H]1CN1CCN(c2nn(-c3ccc(F)cc3)c3ccccc23)CC1 [compound 833823],0.637
18,C[C@H]1CC[C@H](NC(=O)[C@@H]2C[C@H]2CN2CCN(c3nn(-c4cccc(F)c4)c4ccsc34)CC2)CC1 [compound 833856],3.01
19,C[C@H]1CC[C@H](NC(=O)[C@@H]2C[C@H]2CN2CCN(c3nn(-c4ccc(OC(F)(F)F)cc4)c4ccsc34)CC2)CC1 [compound 833876],50.3
20,O=C(NCCCn1ccnc1)[C@@H]1C[C@H]1CN1CCC(c2csc3cc(C(F)(F)F)ccc23)CC1 [compound 834003],3.51

# Same assay, conditions: read-out: d3Ki
row,SMILES,Ki [nM]
1,CC[C@H]1CC[C@H](NC(=O)[C@@H]2C[C@H]2CN2CCN(c3ccc(Cl)c(Cl)c3)CC2)CC1 [compound 828393],3.45

# Same assay, conditions: the 16th table; read-out: D3 Ki
row,SMILES,Ki [nM]
1,"O=C(NCCCn1ccnc1)C1(CCN2CCN(c3csc4cc(C(F)(F)F)ccc34)CC2)CC1 [compound 832231, 1-{2-[4-(6-Trifluoromethyl-benzo[b]thiophen-3-yl)-piperazin-1-yl]-ethyl}-cyclopropanecarboxylic acid (3-imidazol-1-yl-propyl)-amide]",6.93
2,COc1c(F)ccc2c(C3CCN(CCC4(C(=O)N[C@H]5CC[C@H](C)CC5)CC4)CC3)noc12 [compound 833330],72.7
